# Legend:
# ECC-1 cells = experiment: MTS cell viability assay, ECC-1; type: cell-based; conditions: FIG. 3
# Protocol: ECC-1 cells were seeded (10,000 cells/well) in complete RPMI (supplemented with 10% fetal bovine serum and 1% antibiotic) and allowed to adhere over night. Media was replaced with a fresh complete RPMI media containing varying concentrations of Compound (3). DMSO was used as control. At suitable intervals (varying from 1 minute to 4 days), the media was replaced again with complete RPMI (supplemented with 10% fetal bovine serum and 1% antibiotic) containing MTS dye (Invitrogen Inc) and incubated for period (varying from 10 min to 1 day). The absorbance of the media was read at varying wavelengths, advantageously at […] in an ELISA reader.
# (§1) Viability of cell lines (ECC-1, AN3CA, RL-95-2, SKOV-3, PC-3, MCF-7, SMSKCNR and TCL-1) before and after MeTC7 treatment was determined by the CellTiter 96® AQueous One Solution Assay (Promega Corp, Madison, Wisc.) following the manufacturer's recommendations. This colorimetric assay is based on the ability of mitochondria to reduce a substrate [MTS, 3-(4,5-dimethylthiazol-2-yl)-5-(3-carboxymethoxy phenyl)-2-(4-sulfophenyl)-2H-tetrazolium] into a soluble formazan product quantified by measuring the absorbance at 490 nm. The resulting OD is directly proportional to the number of living cells. […] The samples were incubated for an additional 4 h before absorbance was measured at 490 nm in an ELISA plate reader (Thermo Labsystems, Waltham, Mass.). […]
# SKOV-3 cells [1] = experiment: MTS cell viability assay, SKOV-3; type: cell-based; conditions: FIG. 1 / FIG. 2
# Protocol: SKOV-3 cells were seeded (5,000 cells/well) in complete DMEM (supplemented with 10% fetal bovine serum and 1% antibiotic) and allowed to adhere overnight. Media was replaced with a fresh complete DMEM media containing varying concentrations of the drugs of interest. DMSO was used as control. At a suitable interval (varying from 1 minute to 4 days), the media was replaced again with complete RPMI (supplemented with 10% fetal bovine serum and 1% antibiotic) containing MTS dye (Invitrogen Inc.) and incubated for a period varying from 10 minutes to 1 day. The absorbance of the media was read at varying wavelengths, advantageously at […] in an ELISA reader.
# as §1, with “nm.” for “nm. The resulting OD is directly proportional to the number of living cells.”
# SKOV-3 cells [2] = experiment: inhibition of lipid synthesis in SKOV-3 cells (HPLC of extracted lipids); type: cell-based; conditions: 500 nM, serum free
# Protocol: Approximately 3 million cells in serum free conditions were treated with Compound (3) (500 nM). Media was removed, and cells were washed with PBST, trypisinized and collected after centrifugation at 1,000 rpm. The cell pellet was washed with PBST and treated with methanolic HCl for 1 hour. The methanol was removed, and cells were suspended in water and extracted with chloroform. The collected chloroform layer was evaporated with a gentle nitrogen stream, and the residue was analyzed by HPLC.
# SKOV-3 tumor xenographs = experiment: SKOV-3 tumor xenograft in nude mice; type: in vivo
# Protocol: The effects of exemplary compounds of the invention on the growth of SKOV-3 tumor xenographs in nude mice were investigated. Substantively, four- to six week-old immunodeficient nude mice (NU/NU; strain code 088/homozygous) (Charles River Laboratories, Wilmington, Mass.) were maintained at a temperature of 22±1° C. and a relative humidity of 55±5%, with a 12 h light/dark cycle. SKOV-3 cells were cultured to 80% confluence, washed in PBS twice, harvested by hypsination, pooled in complete medium, washed in PBS twice, and 2×10^6 cells/inoculate were suspended in 0.1 ml of matrigel and inoculated subcutaneously in the flank of mice. Mice with developing tumors after two weeks were randomly assigned to experimental groups. Compound (3) was prepared as a stock solution of 1 mM in 100% EtOH and diluted 1:40 in PBS for administration. […] Mice were weighed and tumor size caculated using a caliper every 5 days.
# Four to six week-old immunodeficient nude mice (NU/NU; strain code 088/homozygous) (Charles River Laboratories, Wilmington, Mass.) were maintained at a temperature of −22° C. and a relative humidity of ˜55%, with a 12 h light/dark cycle. […]
# [3] = tested on: panel of cancer cell lines; experiment: ascorbic acid pretreatment, MTS viability in a panel of cancer cell lines; type: cell-based; conditions: ascorbic acid pretreatment 3 hours
# Protocol: Cell lines derived from ovarian cancer, endometrial cancer, breast cancer, prostate cancer and neuroblastoma (5,000 cells/well) were seeded in complete DMEM (supplemented with 10% fetal bovine serum and 1% antibiotic) and allowed to adhere over night. Cells were pretreated with […] of acrorbic acid in 50 μL DMEM media for 3 hours. To the existing media was added DMEM media containing varying concentrations of 2× concentration of Compound (3). DMSO was used as control. At suitable intervals (varying from 1 minute to 4 days), the media was replaced again with complete RPMI (supplemented with 10% fetal bovine serum and 1% antibiotic) containing MTS dye (Invitrogen Inc) and incubated for period (varying from 10 min to 1 day). The absorbance of the media was read at varying wavelengths, advantageously at 492 nm, in an ELISA reader.
# HUVEC cells = experiment: wound healing (scratch) assay with HUVEC cells; type: cell-based; conditions: 500 nMoles, 24 hours
# Protocol: A 24-well plate was coated with 100 µL of sterile 1% gelatin solution per well. After gelatin coating was hardened, about 100,000 HUVEC cells were seeded per well and allowed to grow to 100% confluence in EBM-2 media. A […] tip was then used to create a vertical scratch wound down the center of each well, and cells were washed once with fresh EBM-2 media. Cell monolayers were then imaged at a 0 h time point using light microscopy on an inverted microscope under sterile conditions. Wound areas were imaged again using light microscopy, and areas were demarcated on representative images.
# Floating cells were removed and media was replaced with HUVEC cell media supplemented with vehicle or Compound (3) (500 nMoles) and incubated for 24 hours. The cells were imaged using a pre-cooled inverted NICON microscope (40×).
# [4] = tested on: rat aorta rings (microcapillary formation); experiment: ex vivo rat aorta ring assay; conditions: 24 hour treatment, FIG. 9
# Protocol: Rat aorta were harvested from the freshly euthanized naïve rats, cleaned and cut into fine rings and placed on matrigel beds prepared 30 min earlier in a 6 well plate. […] The media was replaced with fresh supplemented media and allowed the incubation for next 48 hours, thus affording a strong network of the microcappilary network. […] The phase contrast images were recorded on a pre-cooled inverted NICON microscope.
# [5] = tested on: SKOV-3 and OVCAR-8 ovarian cancer cells; experiment: apoptosis detection (TUNEL, cytochrome-C release) in ovarian cancer cells; type: cell-based
# Protocol: SKOV -3 and OVCAR-8 ovarian cancer cells (10,000 per well) were seeded in a 8 well slide chamber in DMEM complete media and allowed to incubate overnight. Cells were treated with complete media containing either vehicle or MeTC7 (500 nM) and incubated for 12 hours in a humidified incubator maintained at standard conditions. DNA fragmentation was detected using the DeadEndTM Fluorometric TUNEL System assay (Promega, Madison, Wisc.) according to the manufacturer's recommendations. Fluorescence of apoptotic cells (green; labeling of DNA nicks by fluorescein-12-dUTP) and of chromatin (red; staining of chromatin with propidium iodide) was detected by fluorescence microscopy with an inverted microscope (Nikon Eclipse TE2000-E) and a 10× objective. Four randomly chosen microscopic fields were captured. For the detection of the cytochrome-C release as a marker of the apoptosis, the cells were fixed in 5% cold formalin solution and cells were stained with cytochrome-C primary antibody (Santa Cruz Biotechnology, USA) and corresponding fluroescence linked secondary antibody. The images were recorded using an inverted microscope. At least five field were arbitrarily scoped.
# [6] = tested on: various cancer cell lines; experiment: viability of a panel of cancer cell lines (CellTiter 96 MTS); type: cell-based; conditions: FIGS. 11A-11C
# Protocol: Viability of cell lines (ECC-1, AN3CA, RL-95-2, SKOV-3, PC-3, MCF-7, SMSKCNR and TCL-1) before and after MeTC7 treatment was determined by the CellTiter 96® AQueous One Solution Assay (Promega Corp, Madison, Wisc.) following the manufacturer's recommendations. This colorimetric assay is based on the ability of mitochondria to reduce a substrate [MTS, 3-(4,5-dimethylthiazol-2-yl)-5-(3-carboxymethoxy phenyl)-2-(4-sulfophenyl)-2H-tetrazolium] into a soluble formazan product quantified by measuring the absorbance at 490 nm. The resulting OD is directly proportional to the number of living cells. Briefly, cells (5×10^3/well) were plated into 96 well flat bottom plates (Corning, Inc., Coming, N.Y.) before treatment with various drugs or vehicle (DMSO) as indicated. Following incubation at 37° C. in a cell culture incubator for 20 h MTS reagent was added at a 1:10 dilution to the medium. The samples were incubated for an additional 4 h before absorbance was measured at 490 nm in an ELISA plate reader (Thermo Labsystems, Waltham, Mass.). Experiments were performed in triplicates; data are expressed as the mean of the triplicate determinations (X±SD) of a representative experiment in % of absorbance by samples with untreated cells [=100%]. Similarly, the cell viability of HEPG2 and HEK293 cells was determined except that the drug concentrations were used in the logarithmic values.
# DAOY cells xenograft = experiment: medulloblastoma (DAOY) xenograft in nude mice; type: in vivo; conditions: 10 mg/kg bwt i.p., 5× week, 15 days
# Protocol: Animal experiments were carried out in the animal facilities of Rhode Island Hospital (RIH), Rhode Island, USA with strict adherence to the guidelines of the Animal Welfare Committee of Rhode Island Hospital (RIH) and Women and Infants Hospital of Rhode Island (Laboratory Animal Protection Approval: A3922-01). Four to six week-old immunodeficient nude mice (NU/NU; strain code 088/homozygous) (Charles River Laboratories, Wilmington, Mass.) were maintained at a temperature of ˜22° C. and a relative humidity of ˜55%, with a 12 h light/dark cycle. DAOY cells were cultured to 80% confluence, washed in PBS twice, harvested by trypsination, pooled in complete medium, washed in PBS twice, and 1×10^6 cells/inoculate were suspended in 0.1 ml of matrigel and inoculated subcutaneously in the flank of mice. Mice with developing tumors after two weeks were randomly assigned to experimental groups. Mice were treated intraperitoneally every day with either vehicle control (control group; 6 animals) or MeTC7 (n=5, 10 mg/kg bwt, 5× week) for 15 days. Mice were weighed and tumor size were measured using a digital caliper every 5th days.
# A2058 cells xenograft = experiment: melanoma (A2058) xenograft in nude mice; type: in vivo; conditions: 10 mg/kg bwt i.p., 5× week, 15 days
# Protocol: Animal experiments were carried out in the animal facilities of Rhode Island Hospital (RIH), Rhode Island, USA with strict adherence to the guidelines of the Animal Welfare Committee of Rhode Island Hospital (RIH) and Women and Infants Hospital of Rhode Island (Laboratory Animal Protection Approval: A3922-01). Four to six week-old immunodeficient nude mice (NU/ NU; strain code 088/homozygous) (Charles River Laboratories, Wilmington, Mass.) were maintained at a temperature of ˜22° C. and a relative humidity of ˜55%, with a 12 h light/dark cycle. A2058 cells were cultured to 80% confluence, washed in PBS twice, harvested by trypsination, pooled in complete medium, washed in PBS twice, and 1×10^6 cells/inoculate were suspended in 0.1 ml of matrigel and inoculated subcutaneously in the flank of mice. Mice with developing tumors after two weeks were randomly assigned to experimental groups. Mice were treated intraperitoneally every day with either vehicle control (control group; 7 animals) or MeTC7 (10 mg/kg bwt, 5× week) for 15 days. Mice were weighed and tumor size were measured using a digital caliper every 5th days. The percent of animals with tumor size less than 15 mm was calculated by Kaplan-Meier Analysis.
# VDR-LBD = molecular target: T1, VDR-LBD (Homo sapiens, UniProt P11473)
# T1 sequence (P11473 127-423 limits assumed): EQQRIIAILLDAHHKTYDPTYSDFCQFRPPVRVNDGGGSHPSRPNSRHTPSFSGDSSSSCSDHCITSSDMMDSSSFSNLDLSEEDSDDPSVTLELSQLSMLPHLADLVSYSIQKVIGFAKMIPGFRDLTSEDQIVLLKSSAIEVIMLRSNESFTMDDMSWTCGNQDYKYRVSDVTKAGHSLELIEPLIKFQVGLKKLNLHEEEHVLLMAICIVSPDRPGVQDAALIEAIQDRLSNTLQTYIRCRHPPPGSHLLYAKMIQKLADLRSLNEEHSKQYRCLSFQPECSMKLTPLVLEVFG
# Source text: VDR antagonists disrupt this interaction by a direct or allosteric mode of inhibition.
smiles,measurement,setting,value
CC(C)CCC[C@@H](C)[C@H]1CC[C@H]2C34C=CC5(C[C@@H](OC(=O)CBr)CC[C@]5(C)[C@H]3CC[C@]12C)n1c(=O)n(C)c(=O)n14 (stereo partly shown) [Compound (3)],cell viability of ECC-1 cells,ECC-1 cells,reduction in cell viability
same,cell viability of SKOV-3 cells,SKOV-3 cells [1],reduction in cell viability
same,lipids appearing at 10.06 minutes (HPLC),SKOV-3 cells [2],significantly reduced
same,tumor burden,"SKOV-3 tumor xenographs; 10 mg/kg bwt i.p. every other day, 40 days, FIG. 7",reduces the tumor burden
same,growth of ovarian cancer xenografts,"SKOV-3 tumor xenographs; 10 mg/kg bwt i.p., 5× week, 31 days, FIG. 11F",reduce the growth of ovarian cancer xenografts in animals
same,cytotoxic effects after ascorbic acid pretreatment,[3],reduced the cytotoxic effects
same,recovery of the scratched area,HUVEC cells,failed to recover and repopulate the scratched area
same,capillary formation and outgrowth,[4],inhibited capillary formation and outgrowth
same,cytochrome-C release,"[5]; 500 nM, 12 hours",abundant cytochrome-C release in the cytosol
same,apoptosis,[5]; FIGS. 11D-11E,cause apoptosis
same,growth of cancer cell lines,[6],block growth of various cancer cell lines
same,growth of medulloblastoma xenografts,DAOY cells xenograft,reduce the growth of medulloblastoma xenografts in animals
same,growth of BRAF mutant melanoma xenografts,A2058 cells xenograft,reduce the growth of BRAF mutant melanoma xenografts in animals
same,survival of animals with melanoma xenografts,A2058 cells xenograft; Kaplan-Meier,extend survival in these animals
same,"VDR antagonism, selectivity",VDR-LBD; FIGS. 10A-10F,selective Vitamin D nuclear receptor (VDR) antagonists
same,VDR agonism (coactivator recruitment),VDR-LBD; in the absence of calcitriol,not a VDR agonist
